From patent US9844535B2, “SHP2 inhibitors and methods of treating autoimmune and/or glomerulonephritis-associated diseases using SHP2 inhibitors” (Indiana University Research and Technology Corporation, priority 2013, dated 2017)
“Also recorded” adds a separate entry of the source.

Tests used:
[1] = biological target: SHP2 (Mus musculus (Mouse), UniProt P35235); assay: Immune complex PTP assay on tissue lysates of inhibitor-treated MRL/lpr mice; assay type: in vivo; settings: 7.5 mg/kg daily for 4 weeks, listed as SHP2 inhibitor
Experimental: Briefly, female MRL/MpJ-fas lpr (MRL/lpr), MRL/Mpj and C57BL/6J mice were purchased from the Jackson Laboratory (Bar Harbor, Me.). For experiments, mice within each group were ip injected with either vehicle (DMSO) or the SHP2 inhibitor (7.5 mg/kg/per day). […] Body weight was measured daily and treatment dosage was adjusted accordingly. At the end of the treatment period, mice were sacrificed with CO2 exsanguination and SLE targeted organs were removed. For each mouse, spleen, kidney, and heart weight were calculated. In addition, total animal body weight and tibia length were measured. Peripheral blood/serum was also collected for use in the cytokine assays described below.
PTP assays were conducted as previously described in Kontaridis et al., J Biol Chem. 2006; 281:6785-6792, using para-nitrophenyl phosphate (pNPP, obtained from Sigma) as substrate. […] Reactions were terminated with 0.2 N NaOH and phosphate release was determined by measuring A410. […]

[2] = test system: MRL/lpr mice; assay: Longevity study; assay type: in vivo, mouse; settings: SLE-prone MRL/lpr mice, 7.5 mg/kg/day ip from 11 weeks of age; listed as SHP2 inhibitor
Experimental: Female MRL/lpr mice were used for a survival/longevity curve analysis. Mice either ip injected with vehicle (DMSO) or SHP2 inhibitor (7.5 mg/kg/each day) were followed beginning at 11 weeks of age to assess tolerance to the inhibitor and longevity/survival curve. The testing was terminated when the last mouse in the control group died, at 26 weeks.

[3] = test system: IFNγ, TNFα, IL17, IL6; assay: Cytokine ELISA; assay type: in vivo, mouse; settings: SLE-prone mice
Description: ELISA assays were used to detect for the presence of various cytokines in mouse serum isolated from vehicle or drug-treated animals or from medium supernatant isolated from tissue cell cultures as described above. In addition, ELISA was also used to detect total IgG and dsDNA IgG from mouse serum and for the assay to detect urine albumin and creatinine levels. ELISA detection kits for mouse cytokines IL-6 and TNFα were purchased from eBioscience, mouse cytokines IL-17A, IFNγ, and human IFNγ were purchased from Biolegend, kits for the albumin and creatinine were purchased from Exocell, and kits for the serum IgG and anti-dsDNA IgG were purchased from Alpha Diagnostic (San Antonio, Tex.). ELISAs were all performed according to the manufacturer's instructions.
Cytokine analyses: In brief, capture antibodies for each cytokine were precoated on 96-well plates overnight at 4° C., then 100 μl of 5× diluted serum or 300× diluted supernatant medium was loaded on the precoated wells in duplicate and left overnight at 4° C. (with the exception of the human IFNγ assay isolated from supernatant medium, where the dilution used was 1:30). As per the protocol instructions, enzyme-antibody conjugate, TMB substrate and stopping buffer were added sequentially. The colorimetric analysis, as measured by optical density (OD) within each well, was determined using a microplate reader set at a wavelength of 450 nm. The cytokine concentrations were calculated and measured against a standard curve for each cytokine.
An ELISA was conducted to detect concentrations of IFNγ, TNFα, IL17, and IL6 in T cells derived from spleen.

Sequence of SHP2 (P35235 whole entry): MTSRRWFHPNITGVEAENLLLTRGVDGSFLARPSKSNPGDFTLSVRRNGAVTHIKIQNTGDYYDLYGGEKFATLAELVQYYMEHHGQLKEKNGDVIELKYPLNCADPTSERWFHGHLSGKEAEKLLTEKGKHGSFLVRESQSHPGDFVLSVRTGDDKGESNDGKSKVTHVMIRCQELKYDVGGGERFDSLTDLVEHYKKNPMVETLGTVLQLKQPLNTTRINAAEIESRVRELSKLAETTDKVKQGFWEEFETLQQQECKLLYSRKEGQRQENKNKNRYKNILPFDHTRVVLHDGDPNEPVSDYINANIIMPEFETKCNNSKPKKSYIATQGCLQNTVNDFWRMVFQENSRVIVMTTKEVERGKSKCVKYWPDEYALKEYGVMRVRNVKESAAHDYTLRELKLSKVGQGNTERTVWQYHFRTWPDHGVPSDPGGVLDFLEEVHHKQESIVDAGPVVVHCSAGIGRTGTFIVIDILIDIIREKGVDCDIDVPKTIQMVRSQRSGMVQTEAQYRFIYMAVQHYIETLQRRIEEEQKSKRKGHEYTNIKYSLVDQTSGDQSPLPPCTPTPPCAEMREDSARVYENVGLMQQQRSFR

Cn1c(-c2cccc(NC(=O)C(=O)Nc3ccc(-c4ccsc4)cc3)c2)c(I)c2cc(C(=O)O)c(O)cc21 [11a-1]
SHP2 activity in tissue lysates [1]: normalized SHP2 activity back to levels of WT; also recorded: normalize SHP2 activity | lifespan / survival (Kaplan-Meier) [2]: significantly increased lifespan; also recorded: increased longevity/survival effect | IFNγ [3]: significant decreases | IL6 [3]: No effects | IL17 [3]: No effects | TNFα [3]: No effects
